Experiments:
AMPA receptors = test: In vitro physiological testing: field EPSPs in rat hippocampal slices (CA1); assay type: cell-based, rat (Sprague-Dawley); conditions: for +25% Amplitude (estimated concentration required to increase the amplitude of the EPSP to 25% above baseline) / +50% Half-Width (estimated concentration required to increase the width of the EPSP at half-height by 50%): rat hippocampal slice, 35° C., about 15 min perfusion, estimated by interpolation in most cases, extrapolation for others; for in vitro enhancement by rotational restriction vs. corresponding rotomer: figure: +50% half-width, vs. substituted benzoyl piperidine rotomers
Method: In Vitro Physiological Testing
The physiological effects of the compounds of this invention were determined in vitro with slices of rat hippocampus by measuring excitatory responses (field EPSPs) in hippocampal slices maintained in a recording chamber continuously perfused with artificial cerebrospinal fluid (ACSF). During a 15-30 minute interval, the perfusion medium was switched to one containing various concentrations of the test compounds. Responses collected immediately before and at the end of drug perfusion were superimposed in order to calculate both the percent increase in EPSP amplitude and percent increase in the width of the response at one-half the peak height (half-width).
To conduct these tests, the hippocampus was removed from anesthetized, 2 month old Sprague-Dawley rats, and in vitro slices (400 micrometers thick) were prepared and maintained in an interface chamber at 35° C. using conventional techniques. this is the procedure used by Dunwiddie and Lynch, J. Physiol. […] A bipolar nichrome stimulating electrode was positioned in the dendritic layer (stratum radiatum) of the hippocampal subfield CA1 close to the border of subfield CA3.
Current pulses (0.1 msec) through the stimulating electrode activated a population of the Schaffer-commissural (SC) fibers which arise from neurons in the subdivision CA3 and terminate in synapses on the dendrites of CA1 neurons. Activation of these synapses causes them to release the transmitter glutamate. Glutamate binds to the post-synaptic AMPA receptors which then transiently open an associated ion channel and permit a sodium current to enter the postsynaptic cell. This current results in a voltage in the extracellular space (the field excitatory post-synaptic potential or field "EPSP") which is recorded by a high impedance recording electrode positioned in the middle of the stratum radiatum of CA1.
For the experiments summarized in the table below, the intensity of the stimulation current was adjusted to produce half-maximal EPSPs (typically about 1.5-2.0 mV). Paired stimulation pulses were given every 40 seconds with an interpulse interval of 200 msec. The field EPSPs of the second response were digitized and analyzed to determine amplitude, half-width, and response area. If the responses were stable for 15-30 minutes (baseline), test compounds were added to the perfusion lines for a period of about 15 minutes. The perfusion was then changed back to regular ACSF.
Paired-pulse stimulation was used since stimulation of the SC fibers in part activates interneurons which generate an inhibitory postsynaptic potential (IPSP) in the pyramidal cells of CA1. This feed-forward IPSP typically sets in after the EPSP reaches its peak. The feed-forward IPSP accelerates the repolarization and shortens the decay phase of the EPSP, and thus could partially mask the effects of the test compounds. One of the relevant features of the feed-forward IPSP is that it cannot be reactivated for several hundred milliseconds following a stimulation pulse. This phenomenon can be employed to advantage to eliminate IPSP by delivering paired pulses separated by 200 milliseconds and using the second ("primed") response for data analysis.
The compounds of the invention were assayed in the physiological test system described above for the generation of data presented in the table below. […] Values have been estimated by interpolation in most cases, but by extrapolation from determined values for others.

[1] = Enhancing memory in rats, 8-arm radial maze learning paradigm; assay type: in vivo, rat; conditions: for minimal effective dose: Rattus norvegicus, rats, read-out: Behavioral Dose (threshold dose for enhancing memory); for in vivo enhancement by rotational restriction vs. corresponding rotomer: figure: threshold dose
[2] = metabolite of aniracetam; cited from earlier work
AMPA receptor = test: In vitro hippocampal patch preparation, effect on AMPA receptor function; assay type: cell-based; conditions: Chiralpak AD, hexane/50% isopropanol
Method: This isomer was determined to be the (+)-enantiomer.

Row | SMILES | +25% Amplitude (estimated concentration required to increase the amplitude of the EPSP to 25% above baseline) (AMPA receptors) | +50% Half-Width (estimated concentration required to increase the width of the EPSP at half-height by 50%) (AMPA receptors) | further results
1 | COc1ccc2c(c1)C(=O)N1CCCC1(C)O2 (racemic) [Compound VIII, (R,S)-7-Methoxy-3a-methyl-2,3-dihydro-1H-pyrrolo[2,1-b][1,3]benzoxazine-9-one] | > 0.3 mM | 0.4 mM | –
2 | O=C1c2cc3nccnc3cc2OC2CCCN12 (racemic) [Compound VI, (R,S)-Pyrazino[2,3-g]-2,3-dihydro-1H-pyrrolo[2,1-b][1,3]benzoxazine-11(3aH)-one] | 0.1 mM | 0.1 mM | in vitro enhancement by rotational restriction vs. corresponding rotomer (AMPA receptors): marked enhancement; minimal effective dose [1]: 2 mg/kg; in vivo enhancement by rotational restriction vs. corresponding rotomer [1]: marked enhancement
3 | COc1ccc2c(c1)C(=O)N1CCCC1O2 (racemic) [Compound V, (R,S)-7-Methoxy-2,3-dihydro-1H-pyrrolo[2,1-b][1,3]benzoxazine-9(3aH)-one] | 1 mM | 0.25 mM | –
4 | O=C1c2cc3c(cc2OC2CCCN12)OCCO3 (racemic) [Compound III, (R,S)-1,4-Dioxan[2,3-g]-2,3-dihydro-1H-pyrrolo[2,1-b][1,3]benzoxazine-11(3aH)-one] | > 0.03 mM | 0.02 mM | in vitro enhancement by rotational restriction vs. corresponding rotomer (AMPA receptors): marked enhancement; potency in the behavioral task vs. corresponding rotomer and other ampakines of WO 94/02475 [1]: ten times more potent; minimal effective dose [1]: 0.1 mg/kg; in vivo enhancement by rotational restriction vs. corresponding rotomer [1]: marked enhancement
5 | COc1ccc(C(=O)NCCCC(=O)O)cc1 [anisoyl-GABA] | – | – | aniracetam-like effects [2]: no aniracetam-like effects
6 | O=C1c2cc3c(cc2OC2CCCN12)OCO3 (racemic) [Compound I, (R,S)-1,3-Dioxolo[4,5-g]-2,3-dihydro-1H-pyrrolo[2,1-b][1,3]benzoxazine-10(3aH)-one] | 0.1 mM | 0.05 mM | in vitro enhancement by rotational restriction vs. corresponding rotomer (AMPA receptors): marked enhancement; minimal effective dose [1]: 1 mg/kg; in vivo enhancement by rotational restriction vs. corresponding rotomer [1]: marked enhancement
7 | O=C1c2cc3c(cc2OC2CCCCN12)OCO3 (racemic) [Compound II, (R,S)-1,3-Dioxolo[4,5-g]-1,2,3,4-tetrahydropyrido[2,1-b][1,3]benzoxazine-11(4aH)-one] | 0.3 mM | 0.2 mM | –
8 | O=C1c2cc3c(cc2OC2CCCN12)OCCO3 (single isomer, unassigned) [second eluting enantiomer] | – | – | activity of second eluting enantiomer relative to first eluting enantiomer (effect on AMPA receptor function) (AMPA receptor): at least 10 -fold
9 | O=C1c2cc3nccnc3cc2OC2CCCCN12 (racemic) [Compound VII, (R,S)-Pyrazino[2,3-g]-1,2,3,4-tetrahydropyrido[2,1-b] [1,3] benzoxazine-12(4aH)-one] | 0.4 mM | 0.3 mM | –
10 | COc1ccc2c(c1)OC1CCCN1C2=O (racemic) [Compound IV, (R,S)-6-Methoxy-2,3-dihydro-1H-pyrrolo[2,1-b][1,3]benzoxazine-9(3aH)-one] | > 1 mM | 0.4 mM | –
11 | O=C1c2cc3c(cc2OC2CCCN12)OCO3 (single isomer, unassigned) [first eluting enantiomer] | – | – | activity of first eluting enantiomer relative to second eluting enantiomer (effect on EPSP) (AMPA receptors; Chiralcel OD, hexane/10% isopropanol, in vitro hippocampal slice): at least 10 -fold
